Test results taken from PMC4775937, “Combination Effects of Antimicrobial Peptides” (Antimicrobial Agents and Chemotherapy, 2016).
Values after ≈ are worked out from the molar mass of the structure shown. Like-named read-outs stand apart in the source and are kept apart here. Ends that are not written are not given here.

Legend:
Escherichia coli MG1655 [1] = type: cell-based
Experimental: (§1) Escherichia coli MG1655 was grown in Luria-Bertani (LB) broth at 37°C with aeration at 220 rpm in 50-ml tubes. Two hundred microliters of overnight culture was resuspended into 15 ml fresh LB broth, cultured under the same conditions for an additional 2 h, and then used for subsequent assays. Mueller-Hinton (MH) broth was used for the assay of MICs and time-killing curves.
According to a standard protocol ([35]), stock solutions of AMPs were diluted in MH broth and then diluted in 96-well plates with a 2-fold gradient, that is, from 0.25 μg/ml to 128 μg/ml. All the gradients of antibiotics were from 0.02 μg/ml to 50 μg/ml, except that the gradient of ciprofloxacin was from 0.002 μg/ml to 1 μg/ml. Approximately 5 × 10^5 log-phase bacteria were added to each well. A positive control containing MH broth and bacteria and a negative control containing only MH broth were included in each plate, and plates were incubated at 37°C overnight.

Escherichia coli MG1655 [2] = experiment: Killing curves fitted to the Hill function (pharmacodynamic parameters); type: cell-based; details: brackets = 95% confidence interval
Experimental: as §1
Thus, Loewe additivity would result in a MIC of any one combination equal to the MIC of the individual drugs (see equations 5 and 6). Thus, 21 two-AMP combinations and 20 three-AMP combinations were generated. An AMP(s) was diluted, starting with 100× MIC, in a 96-well plate to form a 2-fold gradient of concentrations, and 2 × 10^6 log-phase bacteria were added to a total volume of 100 μl. The plates were incubated at 37°C. Killing was assessed within 1 h, as killing by AMPs is very fast ([36], [37]). Ten microliters of a mixture of AMPs and bacteria was taken out every 20 min and then immediately diluted in saline solution and plated on the solid agar plates. These solid agar plates were transferred into a 37°C incubator and cultured overnight for CFU determination. The limit of detection in our system is 100 CFUs.
To model the killing curve, the relationship between the concentration of AMP(s) and the killing and/or growth rate of exposed bacteria, we used a Hill function ([26]): (1) μ(a)=Emax (a/EC50)^κ/1+(a/EC50)^κ Here, μ(a) is the killing rate at a given concentration of AMP(s); a is a given concentration; Emax is the maximal killing rate of the given AMP(s). κ is the Hill coefficient. We then defined growth rate ψ(a) as follows: (2) ψ(a)=ψmax −μ(a) Here, ψmax is the maximal growth rate of bacteria without AMP(s). The maximum effect of AMP(s) is defined by (3) Emax =ψmax −ψmin Thus, the effect of AMP(s) in a given concentration, μ(a), can be rewritten as (4) μ(a)=(ψmax −ψmin )(a/zMIC)^κ/(a/zMIC)^κ−ψmin /ψmax zMIC is the estimated MIC. Growth rate and killing rate of bacteria are estimated from the time-kill curves as the change of CFU over time by using generalized linear regression. […]

[3] = E. coli MG1655, MH broth, 96-well plates, 2-fold gradient 0.25 to 128 μg/ml, approx. 5 × 10^5 log-phase bacteria per well, 37°C overnight

Compound | MIC (Escherichia coli MG1655 [1]; [3]) [µg/mL] | also measured
CC[C@H](C)[C@H](N)C(=O)N[C@@H](CC(C)C)C(=O)N1CCC[C@H]1C(=O)N[C@@H](Cc1c[nH]c2ccccc12)C(=O)N[C@@H](CCCCN)C(=O)N[C@@H](Cc1c[nH]c2ccccc12)C(=O)N1CCC[C@H]1C(=O)N[C@@H](Cc1c[nH]c2ccccc12)C(=O)N[C@@H](Cc1c[nH]c2ccccc12)C(=O)N1CCC[C@H]1C(=O)N[C@@H](Cc1c[nH]c2ccccc12)C(=O)N[C@@H](CCCNC(=N)N)C(=O)N[C@@H](CCCNC(=N)N)C(N)=O [Ind, Indolicidin] | 4 (≈ 2.1 µM) | 
FKRIVQRIKDFLR [LL, LL 17-29] |  | MIC (Escherichia coli MG1655 [1]; MG1655, 2 h): 16 µg/mL
GIGKFLKKAKKFGKAFVKILKK-NH2 [Pex, pexiganan] | 2 | 
GNNRPVYIPQPRPPHPRL [Api, Apidaecin IB] | 4 | 
KWKLFKKIEKVGQNIRDGIIKAGPAVAVVGQATQIAK-NH2 [Cec, Cecropin A] | 1 | κ (lower,upper) (Escherichia coli MG1655 [2]; Hill coefficient (steepness of pharmacodynamic curve), Hill function fit (MCMC) of time-kill data, E. coli MG1655, 37°C, within 1 h): 6.02(5.17,6.84); zMIC (lower,upper) (Escherichia coli MG1655 [2]; estimated MIC from Hill function fit (MCMC) of time-kill data, 2-fold gradient from 100× MIC, 2 × 10^6 log-phase bacteria in 100 μl, 37°C, CFU every 20 min within 1 h, combinations 1:1 or 1:1:1 by volume): 0.32(0.28,0.37) times of original MIC; ψmin (lower,upper) (Escherichia coli MG1655 [2]; minimal growth rate of bacteria, Hill function fit (MCMC) of time-kill data, E. coli MG1655, 37°C, within 1 h): -5.83(-5.89,-5.77)
